Entries after “also recorded” stand apart in the source; their conditions may differ.
Test system: proteases in pooled pig plasma
Assay: Multiplex substrate profiling by mass spectrometry (MSP-MS) of pig plasma with the 228-member tetradecapeptide library
Details: pooled pig plasma ~50-fold diluted to 1 mg/mL protein, DPBS 1 mM DTT, room temperature, 15 and 60 min, LC-MS/MS, triplicate
Text: To quantify proteolytic activity in plasma samples obtained from healthy pigs, we used the MSP-MS assay, which is a global and unbiased substrate-based protease profiling approach. This assay uses a physicochemically diverse library of peptides as substrates for proteases present in a biological sample. Tandem mass spectrometry is used to quantify protease-derived peptide cleavage products. These substrates were designed to contain a unique dipeptide at each terminus (position 1–2 and 13–14) to profile exo-acting proteases and a central decapeptide sequence (position 3–12) consisting of all combinations of neighbor and near-neighbor amino acid pairs that are used to profile endoproteases [10].
Equal volumes of plasma from six pigs were mixed and then diluted to a final concentration of 1 mg/mL protein in assay buffer and mixed with the synthetic peptides. This dilution of ~50-fold reduced the concentration of plasma proteins and peptides in the assay that could interfere with the quantification of the synthetic peptides. Cleavage of synthetic peptides by proteases in neat plasma was predicted to occur in minutes and therefore dilution of plasma decreases the concentration of all proteases so that activity could be monitored at two time intervals over the course of an hour-long assay. This allowed us to detect and quantify peptide cleavage products after 15 and 60 min incubations. […]

Q: Which “cleavage site of the library peptide by pig plasma proteases” value does the source give for FRIHGFDEAHNAWM here?
A: Its value is “cleaved between His-Asn; also recorded: cleaved between Ala-Trp”.
